pIC50: −log10 of the molar value.
Columns and labels:
CCR2 = molecular target: T1, CCR2 (Homo sapiens, UniProt P41597); assay: CCR2 in vitro test: intracellular calcium signal detected by FLIPR; type: cell-based; settings: HEK293 cells expressing CCR2, agonist MCP-1 at EC80, calcium signal
T1 construct: expressed in transfected cells; host or cells: HEK293, clone C7, passage P6
Experimental: (§1) Experimental Example 1: CCR2/CCR5 In Vitro Test
(§2) The intracellular calcium signal was detected by FLIPR, and the IC50 value of the compound was used as an index to evaluate the inhibitory effect of the compound on CCR2 and CCR5 receptors.
(§3) 1. Cell line: The cells were inoculated and incubated in a 5% CO2 incubator at 37° C. overnight.
(§4) CCR2/CCR5 density: 1 M (20 k/well)
(§5) 2. Reagents: Fluo-4 Direct, (Invitrogen, Cat #F10471)
(§6) The compound was dissolved in DMSO to prepare a 10 mM solution, and the compound solution was placed in a nitrogen box.
(§7) Agonist reference compounds:
(§8) Preparation of probenecid in FLIPR assay buffer: 1 mL of FLIPR assay buffer was added to […] of probenecid to prepare a 250 mM solution, which is prepared fresh daily.
(§9) 2× (8 μM) Fluo-4 Direct™ Loading Buffer (per 10 mL) • Thaw a bottle of Fluo-4 Direct™ crystal (F10471). • Add 10 mL of FLIPR assay buffer to the vial. • Add 0.2 mL of probenecid to each 10 mL of Fluo-Direct. The final concentration of the assay was 2.5 mM. • Rotate it and place for >5 minutes (in absence of light). • Prepare fresh daily.
(§10) MCP-1 was diluted in FLIPR assay buffer 1:2 into 10 points, starting at 0.5 uM (final 100 nM). RANTES was diluted in FLIPR assay buffer 1:3 into 10 points, starting at 0.5 uM (final 100 nM). 20 uL of serially diluted compound buffer was added to each well of the DRC plate according to the compound plate map.
(§11) Standard compound was diluted in DMSO 1:3 into 11 points, starting at 1 mM. Test compound was diluted in DMSO 1:3 into 11 points, starting at 2 mM. 250 nL of compound solution was transferred into a cell plate using Echo (Greiner #781946).
(§12) (c) Take the cell plate out of the incubator, and gently dispense 20 uL of 2× Fluo-4 Direct wash-free loading buffer into a 384-well cell culture plate using a pipette. The final cell plate is 40 μL in volume.
(§13) (d) Incubate for 50 minutes at 37° C. under 5% CO2, and for 10 minutes at room temperature.
(§14) (e) Take the cell plate out of the incubator, and place it in FLIPR. Place the composite plate and the tip box in FLIPR.
(§15) (f) For DRC plate: • 1) Run the program on FLIPRTETRA. • 2) Read the fluorescent signal. • 3) Transfer 10 μL of compound from the DRC plate to the cell plate. • 4) Read the fluorescent signal. • 5) Calculate the “maximum−minimum” from Read 90 to the maximum allowed. Use FLIPR to calculate the EC80 value of each cell line. • 6) Prepare 5×EC80 concentration of the agonist reference compound.
(§16) (g) For the composite plate (1-add): • 1) Run the program on FLIPRTETRA. • 2) Transfer 10 μl, of 5×EC80 concentration of the agonist reference compound from the composite plate to the cell plate. • 3) Read the fluorescent signal. • 4) Calculate the “maximum−minimum” from Read 90 to the maximum allowed.
(§17) (h) Analyze the data using Prism, and calculate the IC50 value of the compound.

CCR5 = molecular target: T2, CCR5 (Homo sapiens, UniProt P51681); assay: CCR5 in vitro test: intracellular calcium signal detected by FLIPR; type: cell-based; settings: HEK293 cells expressing CCR5, agonist RANTES at EC80, calcium signal
T2 construct: expressed in transfected cells; host or cells: HEK293, clone C13, passage P4
Experimental: as §1, §2, §3, §4, §5, §6, §7, §8, §9, §10, §11, §12, §13, §14, §15, §16, §17

T1 sequence (P41597 whole entry, species assumed): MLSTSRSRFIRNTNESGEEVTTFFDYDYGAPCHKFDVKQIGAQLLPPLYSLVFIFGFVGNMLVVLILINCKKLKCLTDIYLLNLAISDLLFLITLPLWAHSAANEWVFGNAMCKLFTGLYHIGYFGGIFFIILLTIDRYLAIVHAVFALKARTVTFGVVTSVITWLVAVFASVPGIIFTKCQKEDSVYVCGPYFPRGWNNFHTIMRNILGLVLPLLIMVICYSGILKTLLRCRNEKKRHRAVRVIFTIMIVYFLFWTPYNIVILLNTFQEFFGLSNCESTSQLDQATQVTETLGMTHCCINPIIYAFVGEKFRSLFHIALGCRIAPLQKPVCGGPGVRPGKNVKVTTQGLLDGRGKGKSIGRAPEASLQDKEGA
T2 sequence (P51681 whole entry, species assumed): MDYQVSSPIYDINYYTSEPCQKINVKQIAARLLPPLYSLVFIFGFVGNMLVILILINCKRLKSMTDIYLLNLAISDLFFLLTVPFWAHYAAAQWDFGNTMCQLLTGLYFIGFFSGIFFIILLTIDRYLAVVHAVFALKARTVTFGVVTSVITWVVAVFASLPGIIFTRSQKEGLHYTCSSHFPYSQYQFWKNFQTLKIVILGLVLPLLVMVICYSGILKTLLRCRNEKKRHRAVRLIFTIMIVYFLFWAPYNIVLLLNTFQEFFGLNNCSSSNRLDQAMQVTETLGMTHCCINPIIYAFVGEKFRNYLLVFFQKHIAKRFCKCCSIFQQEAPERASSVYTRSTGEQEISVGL

| pIC50 (CCR2) | pIC50 (CCR5) | SMILES |
| --- | --- | --- |
| 7.52 | 8.00 | CCCCOCCOc1ccc(-c2ccc(OCC(C)C)c(/C=C/C(=O)Nc3ccc([S@@+]([O-])Cc4cncn4CCC)cc3)c2)cc1 [WX034] |
| 8.05 | 7.82 | CCCCOCCOc1ccc(-c2ccc(OC(F)F)c(/C=C/C(=O)Nc3ccc([S@@+]([O-])Cc4c(C)ncn4CC)cc3)c2)cc1 [WX061] |
| 8.41 | 8.00 | CCCCOCCOc1ccc(-c2cc(C)cc(/C=C/C(=O)Nc3ccc([S@+]([O-])Cc4c(C)ncn4CC)cc3)c2)cc1 [WX092] |
| 6.76 | 8.49 | CCCCOc1ccc(-c2ccc(OCC(F)F)c(/C=C/C(=O)Nc3ccc([S@@+]([O-])Cc4cncn4CCC)cc3)c2)cc1 [WX026] |
| 7.92 | 8.47 | CCCCOCCOc1ccc(-c2ccc(CC)c(/C=C/C(=O)Nc3ccc([S@@+]([O-])Cc4cncn4CCC)cc3)c2)cc1 [WX005] |
| 7.61 | 8.46 | CCCCOCCOc1ccc(-c2ccc([S+]([O-])C(C)C)c(/C=C/C(=O)Nc3ccc([S@@+]([O-])Cc4c(C)ncn4CC)cc3)c2)cc1 (stereo partly shown) [WX057] |
| 7.11 | 7.83 | CCCCOCCOc1ccc(-c2ccc(OC)c(/C=C/C(=O)Nc3ccc([S+]([O-])Cc4c(C)ncn4CC)cc3)c2)cc1 (stereo not shown) [WX045] |
| 8.27 | 8.46 | CCCOCCOc1ccc(-c2ccc(OC(F)F)c(/C=C/C(=O)Nc3ccc([S@+]([O-])Cc4c(C)ncn4CC)cc3)c2)cc1 [WX074] |
| 7.73 | 8.39 | CCCCOCCOc1ccc(-c2ccc(C(F)(F)F)c(/C=C/C(=O)Nc3ccc([S@@+]([O-])Cc4cncn4CCC)cc3)c2)cc1 [WX060] |
| 7.15 | 6.12 | CCCCOCCOc1ccc(-c2ccc(OC)c(/C=C/C(=O)Nc3ccc([S@+]([O-])Cc4cncn4CC)cc3)c2)cc1 [WX039] |
| 7.07 | 7.69 | CCCOc1ccc(-c2ccc(OC(F)F)c(/C=C/C(=O)Nc3ccc([S@@+]([O-])Cc4c(C)ncn4CC)cc3)c2)cc1 [WX062] |
| 7.90 | 7.68 | CCCOCCOc1ccc(-c2ccc(OC)c(/C=C/C(=O)Nc3ccc([S@@+]([O-])Cc4cncn4CCC)cc3)c2)cc1 [WX050] |
| 8.23 | 8.89 | CCCCOCCOc1ccc(-c2cc(Cl)c(OC)c(/C=C/C(=O)Nc3ccc([S@@+]([O-])Cc4cncn4CCC)cc3)c2)cc1 [WX053] |
| 7.77 | 9.05 | CCCOCCOc1ccc(-c2ccc(OCC)c(/C=C/C(=O)Nc3ccc([S@@+]([O-])Cc4cncn4CCC)cc3)c2)cc1 [WX067] |
| 7.45 | 9.00 | CCCOCCOc1ccc(-c2ccc(OCC)c(/C=C/C(=O)Nc3ccc([S+]([O-])Cc4c(C)ncn4CCC)cc3)c2)cc1 (stereo not shown) [WX069] |
| 7.43 | 7.27 | CCCCOCCOc1ccc(-c2cccc(/C=C/C(=O)Nc3ccc([S+]([O-])Cc4cncn4CC4CC4)cc3)c2)cc1 (stereo not shown) [WX023] |
| 8.28 | 8.25 | CCCCOCCOc1ccc(-c2ccc(OC)c(/C=C/C(=O)Nc3ccc([S@+]([O-])Cc4cncn4CCC)cc3)c2)cc1 [WX085] |
| 7.06 | 7.81 | CCCCOCCOc1ccc(-c2cccc(/C=C/C(=O)Nc3ccc([S+]([O-])Cc4cncn4CCCC)cc3)c2)cc1 (stereo not shown) [WX028] |
| 6.68 | 7.87 | CCCCOc1ccc(-c2ccc(Cl)c(/C=C/C(=O)Nc3ccc([S+]([O-])Cc4cncn4CCCC)cc3)c2)cc1 (stereo not shown) [WX027] |

| pIC50 (CCR2) | pIC50 (CCR5) | SMILES |
| --- | --- | --- |
| 7.37 | 7.90 | CCCCOCCOc1ccc(-c2ccc(OC)c(/C=C/C(=O)Nc3ccc([S+]([O-])Cc4c(C)ncn4CCC)cc3)c2)cc1 (stereo not shown) [WX038] |
| 7.19 | 7.88 | CCCCOCCOc1ccc(-c2ccc(OC)c(/C=C/C(=O)Nc3ccc([S@@+]([O-])Cc4cncn4CCC)cc3)c2)c(C)c1 [WX036] |
| 7.92 | 8.19 | CCCCOCCOc1ccc(-c2ccc(C3CCCC3)c(/C=C/C(=O)Nc3ccc([S@+]([O-])Cc4c(C)ncn4CC)cc3)c2)cc1 [WX073] |
| 7.90 | 8.26 | CCCCOCCOc1ccc(-c2ccc(OC(F)F)c(/C=C/C(=O)Nc3ccc([S@+]([O-])Cc4c(C)ncn4CCC)cc3)c2)cc1 [WX081] |
| 8.19 | 8.00 | CCCOCCOc1ccc(-c2ccc(OC)c(/C=C/C(=O)Nc3ccc([S@+]([O-])Cc4c(C)ncn4CC)cc3)c2)cc1 [WX066] |
| 8.35 | 8.47 | CCCCOCCOc1ccc(-c2ccc(C(F)(F)F)c(/C=C/C(=O)Nc3ccc([S@+]([O-])Cc4c(C)ncn4CC)cc3)c2)cc1 [WX071] |
| 7.15 | 7.78 | CCCCOCCOc1ccc(-c2ccc(OC)c(/C=C/C(=O)Nc3ccc([S+]([O-])Cc4cnccc4C)cc3)c2)cc1 (stereo not shown) [WX056] |
| 8.03 | 8.85 | CCCOc1ccc(-c2ccc(OC(F)F)c(/C=C/C(=O)Nc3ccc([S@+]([O-])Cc4c(C)ncn4CC)cc3)c2)cc1 [WX063] |
| 6.01 | 7.85 | CCCn1cncc1C[S@+]([O-])c1ccc(NC(=O)/C=C/c2cccc(-c3ccc(OCCOC)cc3)c2)cc1 [WX013] |
| 7.65 | 7.67 | CCCCOCCOc1ccc(-c2ccc(C)c(/C=C/C(=O)Nc3ccc([S+]([O-])Cc4cncn4CC)cc3)c2)cc1 (stereo not shown) [WX041] |
| 7.21 | 8.59 | CCCCOCCOc1ccc(-c2ccc(C)c(/C=C/C(=O)Nc3ccc([S@@+]([O-])Cc4cncn4CCC)cc3)c2)cc1 [WX011] |
| 7.37 | 8.07 | CCCCOCCOc1ccc(-c2ccc(OC)c(/C=C/C(=O)Nc3ccc([S@@+]([O-])Cc4c(C)ncn4CCC)cc3)c2)cc1 [WX076] |
| 7.55 | 8.24 | CCCCOCCOc1ccc(-c2ccc(SC(C)C)c(/C=C/C(=O)Nc3ccc([S@@+]([O-])Cc4cncn4CCC)cc3)c2)cc1 [WX058] |
| 7.21 | 7.19 | CCCOc1ccc(-c2cccc(/C=C(\C)C(=O)Nc3ccc([S+]([O-])Cc4nncn4CCC)cc3)c2)cc1 (stereo not shown) [WX015] |
| 6.53 | 7.79 | CCCCOCCOc1ccc(-c2ccc(C#N)c(/C=C/C(=O)Nc3ccc([S@@+]([O-])Cc4cncn4CCC)cc3)c2)cc1 [WX044] |
| 7.89 | 8.74 | CCCCOCCOc1ccc(-c2ccc(OC)c(/C=C/C(=O)Nc3ccc([S+]([O-])Cc4cnccc4CC)cc3)c2)cc1 (stereo not shown) [WX086] |
| 6.69 | 8.00 | CCCn1cncc1C[S@+]([O-])c1ccc(NC(=O)/C=C/c2cc(-c3ccc(OCCCF)cc3)ccc2Cl)cc1 [WX022] |
| 7.30 | 7.17 | CCCOCCOc1ccc(-c2ccc(OC)c(/C=C/C(=O)Nc3ccc([S@@+]([O-])Cc4c(C)ncn4CC)cc3)c2)cc1 [WX065] |
| 7.28 | 8.40 | CCCCOCCOc1ccc(-c2cc(C)c(OC)c(/C=C/C(=O)Nc3ccc([S@@+]([O-])Cc4cncn4CCC)cc3)c2)cc1 [WX042] |

Source: patent US11155523B2, “Biphenyl compound as CCR2/CCR5 receptor antagonist” (Medshine Discovery Inc., priority 2016, dated 2021)
